{"source": "patent US12295925B2", "about": "“Treatment of neurofibromatosis type 1 (NF1) associated plexiform neurofibromas (PN) in pediatric patients with mirdametinib” (SpringWorks Therapeutics, Inc., priority 2022, dated 2025)", "system": "patients >2 and <25 years with brain cancer", "assay": "Phase I/II trial of single agent mirdametinib in children, adolescents and young adults with brain cancer", "type": "in vivo, human", "experimental": "Example 1: Phase I/II Evaluation of Single Agent Mirdametinib, a Brain-Penetrant MEK1/2 Inhibitor, for the Treatment of Children, Adolescents, and Young Adults with Brain Cancer A multi-arm phase I/II trial of mirdametinib is to be conducted in patients>2 and <25 years with brain cancer. Phase I requires participants have no prior exposure to MEK inhibitors and recurrent/progressive disease with biopsy-proven evidence of MAPK pathway activation. Three escalating dose levels (2 mg/m^2/dose BID, 2.5 mg/m^2/dose BID and 3 mg/m^2/dose BID) are planned using a rolling 6 design. The median age enrolled in the study is 10 years old (3-21).", "data": [{"smiles": "O=C(NOC[C@H](O)CO)c1ccc(F)c(F)c1Nc1ccc(I)cc1F", "note": "(single isomer, unassigned) [mirdametinib]", "values": [{"measurement": "dose-limiting toxicities", "setting": "all three dose levels (2, 2.5 and 3 mg/m^2/dose BID), rolling 6 design, patients with brain cancer, median age 10 years", "value": "No dose-limiting toxicities"}, {"measurement": "clinical activity (overall assessment)", "setting": "dosed continuously in patients with brain cancer", "value": "clinically promising"}]}]}
